Patent publication US4287206A, “Halogen derivatives of 8-hydroxycarboxylic acids; the processes for their preparation and medicaments in which they are present” (priority 1978, dated 1981)

Legend:
Type in all cases: in vivo
rats [1] = assay: Influence of pimozide on the stereotypies caused in rats; settings: 8 mg.kg^-1 intraperitoneal
Method: (§1) The tests were carried out on batches of 6 rats for each dose; immediately after the oral or intraperitoneal administration, the animals are placed in individual, transparent plastic 20×10×10 cm boxes provided with a pierced stainless steel lid. The stereotyped movements are rated from 0 to 3, in accordance with the method described by Simon and Chermat (J. Pharmacol. (Paris), 1972, 3, 235-238) every 10 minutes until they disappear in all the animals. The detailed curves are plotted and the surface area of the curve is calculated as described in the above reference.
Research into the antagonistic effects of the stereotypies caused in rats by the medicament according to the invention
(a) Influence of pimozide
At time 0, pimozide (1 mg.kg^-1) or distilled water is administered intraperitoneally; after 30 minutes, all the animals receive, by intraperitoneal administration, the medicament according to the invention, obtained in accordance with Example III (8 mg.kg^-1). The stereotypies are assessed as described above. The surface area of the curve of the stereotypies is calculated.

mice [2] = assay: Anti-reserpine activity in mice (reserpine hypothermia); settings: comparison of isomers; 32 mg/kg administered orally; schematic grades; listed as α diastereoisomer, 32 mg/kg
Method: Anti-reserpine activity in mice
At time 0, the mice receive reserpine (2.5 mg.kg^-1) by intraperitoneal administration.
After 4 hours, when the hypothermia is significant (30 to 31°C.), the substance to be studied is administered intraperitoneally or orally. The rectal temperature is measured, using a probe, carrying a thermoelectric couple, inserted to a constant depth, every 30 minutes for 2 hours.

rats [3] = assay: Influence of alpha-methyltyrosine on the stereotypies caused in rats; settings: 8 mg.kg^-1 intraperitoneal
Method: as §1
(b) Influence of alpha-methyltyrosine
At time 0, the animals receive, by intraperitoneal administration, either distilled water or alphamethyltyrosine at a dose of 64 mg.kg^-1; after 150 minutes, they receive, by intraperitoneal administration, the medicament according to the invention, obtained in accordance with Example III, at a dose of 8 mg.kg^-1.
The animals are observed under the conditions described above in the study of the stereotypies in rats.

mice [4] = assay: Motor activity in mice (activity meters with photoelectric cells); settings: comparison of isomers; 32 mg/kg administered orally; schematic grades; listed as α diastereoisomer, 32 mg/kg
Method: The motor activity was determined with the aid of activity meters having photoelectric cells (Boissier and Simon, Arch. int. Pharmacodyn. 1965, 158, 212-221). A minimum of 10 animals was always used per batch.
The mice are placed in the activity meter just after the oral or intraperitoneal administration of the product acccording to the invention, obtained in accordance with Example I. The motor activity is measured as from the introduction into the activity meter up to the 60th minute. The counters are read after 30 minutes, then reset to 0 and read every 10 minutes for 30 minutes.

rats [5] = assay: Study of the stereotypies in rats; settings: comparison of isomers, 32 mg/kg administered orally, schematic grades, 32 mg/kg
Method: Study of the stereotypies in rats
as §1

mice [6] = assay: Anti-apomorphine activity in mice (hypothermia caused by apomorphine); settings: comparison of isomers; 32 mg/kg administered orally; schematic grades; listed as α diastereoisomer, 32 mg/kg

SMILES: CC1CC(c2ccc(Cl)cc2)C(c2ccccc2)C(=O)O1 (stereo not drawn) [Example III, Trans-4-(4'-chlorophenyl)-6-methyl-3-phenyl-3,4,5,6-tetrahydropyrone-2, IIIα]
- surface area of the curve of the stereotypies, medicament by itself (rats [1]): 63
- surface area of the curve of the stereotypies, medicament administered after pimozide (rats [1]; 30 min after pimozide 1 mg.kg^-1 intraperitoneal): 17
- Anti-reserpine action (mice [2]): less significant
- surface area of the curve of the stereotypies, medicament by itself (rats [3]): 63
- surface area of the curve of the stereotypies, medicament + alpha-methyltyrosine (rats [3]; 150 min after alpha-methyltyrosine 64 mg.kg^-1 intraperitoneal): 60.8
- Increase in the motor activity in mice (mice [4]): less significant
- Stereotypy-forming action on rats (rats [5]; listed as 100% of α): 0
- Stereotypy-forming action on rats (rats [5]; listed as α diastereoisomer): virtually disappears
- Anti-apomorphine action (mice [6]): persists
